PMC3072440 (Chemical research in toxicology, 2010)
pIC50: −log10 of the molar value. Where two headings read alike, the source gives them in different places.

Key:
human P450 2C9 = human P450 2C9 (Homo sapiens, UniProt P11712); test: Inhibition of P450 2C9-dependent flurbiprofen 4’-hydroxylation
CYP3A4 (P450 3A4) = CYP3A4 (P450 3A4) (Homo sapiens, UniProt P08684); test: Inhibition of P450 3A4-dependent midazolam 4-hydroxylation; settings: human, pH 7.4, probe midazolam (0.1 mM), 4-hydroxylation
Chain of CYP3A4 (P450 3A4) (P08684 whole entry): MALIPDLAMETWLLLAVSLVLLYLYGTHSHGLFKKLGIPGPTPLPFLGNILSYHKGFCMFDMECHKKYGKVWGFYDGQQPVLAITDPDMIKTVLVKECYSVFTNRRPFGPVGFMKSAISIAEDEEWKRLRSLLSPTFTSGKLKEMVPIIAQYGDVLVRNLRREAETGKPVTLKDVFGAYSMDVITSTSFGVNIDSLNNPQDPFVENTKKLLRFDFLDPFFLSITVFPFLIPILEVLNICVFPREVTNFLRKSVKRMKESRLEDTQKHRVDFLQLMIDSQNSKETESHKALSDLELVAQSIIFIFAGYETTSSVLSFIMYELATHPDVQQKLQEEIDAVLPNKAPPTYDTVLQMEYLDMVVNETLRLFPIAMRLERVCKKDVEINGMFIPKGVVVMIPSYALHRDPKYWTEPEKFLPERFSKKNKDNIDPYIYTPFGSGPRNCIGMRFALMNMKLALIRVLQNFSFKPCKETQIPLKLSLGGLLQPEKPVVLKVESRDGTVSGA

human P450 1A1 = target: T1, human P450 1A1 (Homo sapiens, UniProt P04798); test: Inhibition of P450 1A1-dependent EROD activity; assay type: biochemical
T1 sequence (P04798 1-512): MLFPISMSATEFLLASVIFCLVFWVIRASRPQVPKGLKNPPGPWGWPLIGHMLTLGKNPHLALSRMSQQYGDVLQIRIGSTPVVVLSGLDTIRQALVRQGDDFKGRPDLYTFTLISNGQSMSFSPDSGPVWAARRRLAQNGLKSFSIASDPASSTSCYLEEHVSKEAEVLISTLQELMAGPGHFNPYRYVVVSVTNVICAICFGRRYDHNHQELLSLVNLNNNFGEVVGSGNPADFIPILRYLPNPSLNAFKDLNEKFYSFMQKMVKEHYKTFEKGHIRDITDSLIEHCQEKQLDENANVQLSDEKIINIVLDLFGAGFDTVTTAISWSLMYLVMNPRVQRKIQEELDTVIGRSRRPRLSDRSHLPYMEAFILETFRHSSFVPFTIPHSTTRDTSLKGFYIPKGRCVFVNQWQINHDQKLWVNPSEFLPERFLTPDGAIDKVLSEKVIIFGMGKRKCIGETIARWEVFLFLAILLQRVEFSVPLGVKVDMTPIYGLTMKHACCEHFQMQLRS

human P450 3A4 [1] = target: T2, human P450 3A4 (Homo sapiens, UniProt P08684); test: Spectral binding titration with purified P450 3A4; settings: decreases in α and β bands monitored; up to 100 µM
T2 sequence (P08684 whole entry): as the sequence (P08684 whole entry) above

human P450 3A4 [2] = target: T2, human P450 3A4
human P450 3A4 [3] = target: T2, human P450 3A4; remark: listed apart in the source
human P450 3A4 [4] = target: T2, human P450 3A4; test: Effect on P450 3A4-catalyzed midazolam 1’-hydroxylation

Chain of human P450 2C9 (P11712 whole entry): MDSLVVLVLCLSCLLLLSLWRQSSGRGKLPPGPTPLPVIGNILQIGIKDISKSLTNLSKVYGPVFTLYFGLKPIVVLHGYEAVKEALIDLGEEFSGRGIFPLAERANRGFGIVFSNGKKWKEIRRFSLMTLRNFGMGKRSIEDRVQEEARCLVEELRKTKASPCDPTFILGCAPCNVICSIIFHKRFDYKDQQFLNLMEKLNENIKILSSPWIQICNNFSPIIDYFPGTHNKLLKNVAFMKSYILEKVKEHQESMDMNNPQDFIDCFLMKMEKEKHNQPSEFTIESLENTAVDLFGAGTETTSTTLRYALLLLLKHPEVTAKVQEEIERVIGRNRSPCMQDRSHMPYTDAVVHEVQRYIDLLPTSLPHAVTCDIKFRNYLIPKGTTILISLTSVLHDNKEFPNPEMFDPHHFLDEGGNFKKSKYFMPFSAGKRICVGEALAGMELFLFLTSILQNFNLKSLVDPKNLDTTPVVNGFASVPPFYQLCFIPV

SMILES	inhibition of P450 2C9 flurbiprofen 4’-hydroxylation, in words (human P450 2C9)	pIC50 (CYP3A4 (P450 3A4))	pIC50 (human P450 1A1)	spectral change / Type I binding spectra with P450 3A4, in words (human P450 3A4 [1])	inhibition of P450 3A4 midazolam 4-hydroxylation, in words (human P450 3A4 [2])	effect on formation of 1’-hydroxymidazolam by P450 3A4, in words (human P450 3A4 [3])	effect on formation of 1’-hydroxymidazolam by P450 3A4, in words (human P450 3A4 [4])
COc1cccc(-c2cc(=O)c3c(O)cc(O)cc3o2)c1 [3’M57DHF, 3’-methoxy-5,7-dihydroxyflavone]	strong inhibitors	4.80	5.24	induced spectral changes	–	–	–
O=c1cc(-c2ccc(O)cc2)oc2cc(O)cc(O)c12 [4’57THF, 4’5,7-trihydroxyflavone]	–	–	–	–	significantly inhibited	slightly activated	–
O=C1CC(c2ccccc2)Oc2ccccc21 (centres unmarked) [flavanone]	–	–	–	–	inhibited the formation of 4-hydroxymidazolam	–	enhanced the formation of 1’-hydroxymidazolam
